Source: ChEMBL document CHEMBL6096701 (J Med Chem, 2025)
Calls of active or inactive are those of the source. No cut-off for these calls is given here.

How the values were obtained:
[1] = Upregulation of IL-10 level in human CD4+ T cell by flow cytometry analysis; type: functional, cell-based
[2] = target: Cyclin-dependent kinase 7 (Homo sapiens) (UniProt P50613); assay: Binding affinity to CDK7 (unknown origin)
[3] = target: Glycogen synthase kinase-3 alpha (Homo sapiens) (UniProt P49840); assay: Binding affinity to GSK3alpha (unknown origin)
Sequence of Glycogen synthase kinase-3 alpha (Homo sapiens) (P49840 2-483 limits assumed): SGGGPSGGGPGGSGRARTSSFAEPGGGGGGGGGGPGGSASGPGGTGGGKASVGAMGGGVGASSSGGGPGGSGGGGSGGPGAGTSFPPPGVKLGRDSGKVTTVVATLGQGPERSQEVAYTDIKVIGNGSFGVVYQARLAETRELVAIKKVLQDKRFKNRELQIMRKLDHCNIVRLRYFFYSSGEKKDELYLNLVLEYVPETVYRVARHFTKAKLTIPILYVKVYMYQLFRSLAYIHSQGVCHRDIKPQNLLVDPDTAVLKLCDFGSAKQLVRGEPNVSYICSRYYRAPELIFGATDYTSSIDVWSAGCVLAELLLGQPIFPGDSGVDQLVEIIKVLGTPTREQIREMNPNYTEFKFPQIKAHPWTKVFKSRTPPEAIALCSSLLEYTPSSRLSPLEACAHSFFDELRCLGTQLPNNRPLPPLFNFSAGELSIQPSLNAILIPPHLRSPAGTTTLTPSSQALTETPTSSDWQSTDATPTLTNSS

[4] = target: Serine/threonine-protein kinase SIK1 (Homo sapiens) (UniProt P57059); assay: Binding affinity to SIK1 (unknown origin) by FRET biochemical assay
[5] = target: Serine/threonine-protein kinase SIK3 (Homo sapiens) (UniProt Q9Y2K2); assay: Binding affinity to SIK3 (unknown origin) by FRET biochemical assay
Sequence of Serine/threonine-protein kinase SIK3 (Homo sapiens) (Q9Y2K2 whole entry, looked up): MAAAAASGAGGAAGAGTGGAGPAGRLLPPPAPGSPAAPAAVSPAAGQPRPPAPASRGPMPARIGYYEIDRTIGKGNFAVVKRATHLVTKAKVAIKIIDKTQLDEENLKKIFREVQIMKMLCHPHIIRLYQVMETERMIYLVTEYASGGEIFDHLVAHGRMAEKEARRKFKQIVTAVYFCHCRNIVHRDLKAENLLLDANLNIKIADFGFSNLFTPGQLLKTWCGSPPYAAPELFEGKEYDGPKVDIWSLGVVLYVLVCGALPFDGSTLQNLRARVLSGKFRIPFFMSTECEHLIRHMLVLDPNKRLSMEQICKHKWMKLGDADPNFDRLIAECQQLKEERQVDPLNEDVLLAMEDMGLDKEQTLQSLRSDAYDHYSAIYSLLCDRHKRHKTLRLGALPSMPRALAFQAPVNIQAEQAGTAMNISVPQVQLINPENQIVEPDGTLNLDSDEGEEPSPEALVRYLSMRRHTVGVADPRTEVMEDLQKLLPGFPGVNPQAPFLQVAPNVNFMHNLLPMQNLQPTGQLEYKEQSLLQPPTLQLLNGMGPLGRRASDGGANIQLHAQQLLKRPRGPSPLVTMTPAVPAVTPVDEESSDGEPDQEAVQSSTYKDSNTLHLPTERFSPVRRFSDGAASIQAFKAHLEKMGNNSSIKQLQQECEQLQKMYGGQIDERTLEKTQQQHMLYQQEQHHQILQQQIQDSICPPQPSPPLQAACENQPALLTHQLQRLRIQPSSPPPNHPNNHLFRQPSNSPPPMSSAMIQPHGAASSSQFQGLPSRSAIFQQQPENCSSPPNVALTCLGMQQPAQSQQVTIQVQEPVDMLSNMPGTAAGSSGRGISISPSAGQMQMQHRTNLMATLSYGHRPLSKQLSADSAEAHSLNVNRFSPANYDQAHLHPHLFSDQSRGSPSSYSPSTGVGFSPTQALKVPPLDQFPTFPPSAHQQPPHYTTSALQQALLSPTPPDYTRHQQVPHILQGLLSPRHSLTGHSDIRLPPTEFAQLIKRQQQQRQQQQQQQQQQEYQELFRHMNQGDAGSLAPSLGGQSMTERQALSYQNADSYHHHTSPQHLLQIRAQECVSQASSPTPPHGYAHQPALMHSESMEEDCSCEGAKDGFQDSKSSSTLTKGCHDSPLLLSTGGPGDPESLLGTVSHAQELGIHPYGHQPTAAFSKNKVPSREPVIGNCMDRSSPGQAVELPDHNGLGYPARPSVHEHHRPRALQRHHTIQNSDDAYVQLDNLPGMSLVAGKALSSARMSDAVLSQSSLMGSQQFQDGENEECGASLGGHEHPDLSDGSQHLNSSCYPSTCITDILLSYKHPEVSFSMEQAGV

[6] = target: Cyclin-dependent kinase 5 (Homo sapiens) (UniProt Q00535); assay: Binding affinity to CDK5 (unknown origin)
Sequence of Cyclin-dependent kinase 5 (Homo sapiens) (Q00535 whole entry, looked up): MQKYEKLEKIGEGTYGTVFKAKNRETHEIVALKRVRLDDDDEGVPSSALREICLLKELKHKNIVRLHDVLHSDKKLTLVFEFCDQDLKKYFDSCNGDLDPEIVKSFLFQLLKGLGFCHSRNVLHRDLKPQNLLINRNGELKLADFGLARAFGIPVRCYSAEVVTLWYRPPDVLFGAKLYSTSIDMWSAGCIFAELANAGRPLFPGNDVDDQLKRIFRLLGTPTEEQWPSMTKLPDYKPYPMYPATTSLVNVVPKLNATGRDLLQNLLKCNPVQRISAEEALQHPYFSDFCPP

[7] = target: Serine/threonine-protein kinase SIK2 (Homo sapiens) (UniProt Q9H0K1); assay: Binding affinity to SIK2 (unknown origin) by FRET biochemical assay
Sequence of Serine/threonine-protein kinase SIK2 (Homo sapiens) (Q9H0K1 whole entry, looked up): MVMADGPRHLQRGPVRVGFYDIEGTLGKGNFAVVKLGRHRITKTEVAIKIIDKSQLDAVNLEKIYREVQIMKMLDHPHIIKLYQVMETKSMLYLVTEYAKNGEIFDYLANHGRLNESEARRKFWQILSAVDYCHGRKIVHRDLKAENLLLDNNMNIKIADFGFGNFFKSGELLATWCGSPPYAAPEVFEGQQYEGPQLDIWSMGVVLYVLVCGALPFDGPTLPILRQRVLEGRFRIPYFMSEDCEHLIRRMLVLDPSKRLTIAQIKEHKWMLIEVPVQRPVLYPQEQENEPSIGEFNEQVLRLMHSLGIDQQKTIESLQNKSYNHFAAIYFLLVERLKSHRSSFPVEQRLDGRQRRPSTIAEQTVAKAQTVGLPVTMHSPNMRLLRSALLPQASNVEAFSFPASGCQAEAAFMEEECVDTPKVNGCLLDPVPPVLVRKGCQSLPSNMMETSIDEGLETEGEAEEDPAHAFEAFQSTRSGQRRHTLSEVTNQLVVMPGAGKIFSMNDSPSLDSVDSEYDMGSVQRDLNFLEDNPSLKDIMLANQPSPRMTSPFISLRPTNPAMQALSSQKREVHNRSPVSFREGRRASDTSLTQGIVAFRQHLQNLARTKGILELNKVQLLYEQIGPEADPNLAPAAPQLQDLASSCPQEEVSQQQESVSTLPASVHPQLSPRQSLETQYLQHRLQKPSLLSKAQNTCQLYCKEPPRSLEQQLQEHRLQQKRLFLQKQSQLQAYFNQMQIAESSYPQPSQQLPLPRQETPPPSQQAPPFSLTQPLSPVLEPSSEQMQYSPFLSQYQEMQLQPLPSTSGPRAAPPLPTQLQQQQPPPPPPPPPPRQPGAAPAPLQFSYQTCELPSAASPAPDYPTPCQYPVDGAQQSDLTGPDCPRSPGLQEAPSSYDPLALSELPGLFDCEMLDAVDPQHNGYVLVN

[8] = target: Cyclin-dependent kinase 6 (Homo sapiens) (UniProt Q00534); assay: Binding affinity to CDK6 (unknown origin)
Sequence of Cyclin-dependent kinase 6 (Homo sapiens) (Q00534 whole entry): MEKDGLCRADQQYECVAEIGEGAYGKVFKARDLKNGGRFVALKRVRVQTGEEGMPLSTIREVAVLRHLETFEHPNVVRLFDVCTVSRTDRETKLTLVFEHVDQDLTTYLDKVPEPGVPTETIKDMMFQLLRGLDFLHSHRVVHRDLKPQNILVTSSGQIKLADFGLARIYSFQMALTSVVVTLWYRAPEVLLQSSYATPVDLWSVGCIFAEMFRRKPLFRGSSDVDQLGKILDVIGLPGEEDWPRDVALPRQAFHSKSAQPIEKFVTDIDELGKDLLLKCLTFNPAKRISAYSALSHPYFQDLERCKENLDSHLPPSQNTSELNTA

[9] = target: Glycogen synthase kinase-3 beta (Homo sapiens) (UniProt P49841); assay: Binding affinity to GSK3beta (unknown origin)
Sequence of Glycogen synthase kinase-3 beta (Homo sapiens) (P49841 whole entry, looked up): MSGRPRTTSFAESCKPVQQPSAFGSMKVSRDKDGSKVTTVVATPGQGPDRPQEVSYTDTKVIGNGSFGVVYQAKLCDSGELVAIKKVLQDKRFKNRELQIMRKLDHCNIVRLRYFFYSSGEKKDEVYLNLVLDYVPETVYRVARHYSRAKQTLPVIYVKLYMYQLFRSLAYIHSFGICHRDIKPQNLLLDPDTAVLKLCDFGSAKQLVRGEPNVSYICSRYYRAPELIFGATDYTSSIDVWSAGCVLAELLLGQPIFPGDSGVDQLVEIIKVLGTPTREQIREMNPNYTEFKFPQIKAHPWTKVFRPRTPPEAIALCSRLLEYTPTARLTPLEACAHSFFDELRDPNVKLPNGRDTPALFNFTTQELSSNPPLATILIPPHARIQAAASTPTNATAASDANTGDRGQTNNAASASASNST

[10] = target: Cyclin-dependent kinase 10 (Homo sapiens) (UniProt Q15131); assay: Binding affinity to CDK10 (unknown origin)
Sequence of Cyclin-dependent kinase 10 (Homo sapiens) (Q15131 whole entry): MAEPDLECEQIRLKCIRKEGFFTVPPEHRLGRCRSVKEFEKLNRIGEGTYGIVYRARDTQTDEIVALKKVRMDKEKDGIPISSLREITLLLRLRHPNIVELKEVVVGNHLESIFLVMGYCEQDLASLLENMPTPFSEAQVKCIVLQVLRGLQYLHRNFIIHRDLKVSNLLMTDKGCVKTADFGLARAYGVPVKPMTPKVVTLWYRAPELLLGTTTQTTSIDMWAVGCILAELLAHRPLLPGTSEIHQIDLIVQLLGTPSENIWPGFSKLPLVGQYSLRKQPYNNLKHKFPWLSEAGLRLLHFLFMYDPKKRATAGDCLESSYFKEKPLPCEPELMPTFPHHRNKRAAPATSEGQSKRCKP

[11] = target: Cyclin-dependent kinase 2 (Homo sapiens) (UniProt P24941); assay: Binding affinity to CDK2 (unknown origin)
[12] = target: Cyclin-dependent kinase 9 (Homo sapiens) (UniProt P50750); assay: Binding affinity to CDK9 (unknown origin)
Sequence of Cyclin-dependent kinase 9 (Homo sapiens) (P50750 whole entry): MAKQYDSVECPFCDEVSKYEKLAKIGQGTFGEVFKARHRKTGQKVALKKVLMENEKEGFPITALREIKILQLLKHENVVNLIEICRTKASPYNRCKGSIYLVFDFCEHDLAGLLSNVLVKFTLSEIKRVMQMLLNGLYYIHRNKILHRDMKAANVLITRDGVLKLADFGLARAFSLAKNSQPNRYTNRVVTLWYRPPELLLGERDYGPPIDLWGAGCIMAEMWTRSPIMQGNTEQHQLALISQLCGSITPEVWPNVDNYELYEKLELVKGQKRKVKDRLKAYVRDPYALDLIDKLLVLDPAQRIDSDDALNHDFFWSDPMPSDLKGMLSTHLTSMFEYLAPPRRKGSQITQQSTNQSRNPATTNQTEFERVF

[13] = target: Cyclin-dependent kinase 8/19 (Homo sapiens, UniProt P49336+Q9BWU1); assay: Binding affinity to CDK8/CDK19 complex in human CD4+ T cell assessed as upregulation of IL-10 level; type: cell-based
[14] = Metabolic stability in human hepatocytes assessed as intrinsic clearance by LC-MS/MS analysis; type: ADME, cell-based, Hepatocyte; conditions: read-out: CLH
Mus musculus [15] = assay: Anti-inflammatory activity in LPS-induced male CD-1 mouse acute inflammatory model assessed as effect on IL-10 level at 50 mg/kg, sc preincubated for 15 mins followed by LPS stimulation and measured after 3.5 hrs; type: functional, organism-based; conditions: time 225.0 min
Mus musculus [16] = assay: Anti-inflammatory activity in LPS-induced male CD-1 mouse acute inflammatory model assessed as peak IL-10 level at 50 mg/kg, sc preincubated for 15 mins followed by LPS stimulation and measured after 2 hrs relative to control; type: functional; conditions: time 135 min, 2.25 h
Mus musculus [17] = assay: Anti-inflammatory activity in LPS-induced male CD-1 mouse acute inflammatory model assessed as peak IL-10 level at 10 mg/kg, sc preincubated for 15 mins followed by LPS stimulation and measured after 2 hrs relative to control; type: functional; conditions: time 135 min, 2.25 h
[18] = Upregulation of IL-10 level in mouse whole blood cell preincubated for 30 mins followed by LPS stimulation and measured after 23 hrs by MSD analysis; type: functional, cell-based
[19] = Upregulation of IL-10 level in human whole blood cell preincubated for 30 mins followed by LPS stimulation and measured after 23 hrs by MSD analysis; type: functional, cell-based
[20] = Upregulation of TNF-alpha level in human CD4+ T cell by flow cytometry analysis; type: functional, cell-based
Mus musculus [21] = assay: Anti-inflammatory activity in LPS-induced male CD-1 mouse acute inflammatory model assessed as peak IL-10 level at 1 mg/kg, sc preincubated for 15 mins followed by LPS stimulation and measured after 2 hrs relative to control; type: functional; conditions: time 135 min, 2.25 h

Sequence of Cyclin-dependent kinase 7 (Homo sapiens) (P50613 whole entry): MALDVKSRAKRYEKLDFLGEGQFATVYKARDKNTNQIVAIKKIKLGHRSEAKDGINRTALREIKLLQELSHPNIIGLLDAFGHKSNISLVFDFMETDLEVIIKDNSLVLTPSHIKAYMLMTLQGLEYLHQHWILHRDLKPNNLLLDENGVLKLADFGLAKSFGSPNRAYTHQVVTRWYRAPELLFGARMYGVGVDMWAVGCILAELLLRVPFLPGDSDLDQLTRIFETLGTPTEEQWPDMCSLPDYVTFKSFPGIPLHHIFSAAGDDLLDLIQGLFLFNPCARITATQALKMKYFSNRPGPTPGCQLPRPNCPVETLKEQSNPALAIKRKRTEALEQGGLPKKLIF

SMILES | EC50 [1] | also measured
CC(C)COc1nccc(C2CCCN(C(=O)c3c[nH]c(C#N)c3)C2)n1 (racemic) | > 25 µM | –
N#Cc1ccc(C(=O)N2CCOC(c3ccnc(N4CCCC4)n3)C2)[nH]1 (racemic) | > 25 µM | –
NC(=O)c1c[nH]c(C(=O)N2CCOC(c3ccnc(N4CCCC4)n3)C2)c1 (racemic) | > 25 µM | –
CCN(CC)c1nccc(C2CCCN(C(=O)c3c[nH]c(C#N)c3)C2)n1 (racemic) | > 25 µM | –
CO[C@H]1C[C@@H](c2ccnc(N3CC[C@@H](F)C3)n2)CN(C(=O)c2c[nH]c(C#N)c2)C1 | 2.4 µM | –
N#Cc1cc(C(=O)N2CCO[C@H](c3ccnc(N4CCCC4)n3)C2)c[nH]1 | 1.05 µM | –
N#Cc1cc(C(=O)N2CCCC(c3ncnc(N4CCCC4)n3)C2)c[nH]1 (racemic) | > 25 µM | –
N#Cc1cc(C(=O)N2CCOC(c3ccnc(N4CCCC4)n3)C2)co1 (racemic) | > 25 µM | –
N#Cc1ncc(C(=O)N2CCOC(c3ccnc(N4CCCC4)n3)C2)s1 (racemic) | > 25 µM | –
N#Cc1cc(C(=O)N2CCCC(c3ccnc(-n4cccn4)n3)C2)c[nH]1 (racemic) | 9.12 µM | –
Cn1cc(C(=O)N2CCOC(c3ccnc(N4CCCC4)n3)C2)cc1C#N (racemic) | > 25 µM | –
N#Cc1cc(C(=O)N2CCOC(c3ccnc(N4CCCC4)n3)C2)n[nH]1 (racemic) | > 25 µM | –
N#Cc1cc(C(=O)N2CCC[C@H](c3ccnc(N4CCC(F)(F)C4)n3)C2)c[nH]1 | 0.955 µM | –
CCc1nccc(C2CCCN(C(=O)c3c[nH]c(C#N)c3)C2)n1 (racemic) | > 25 µM | –
N#Cc1c[nH]c(C(=O)N2CCO[C@H](c3ccnc(N4CCCC4)n3)C2)c1 | 5.89 µM | Activity [2]: inactive; Activity [3]: inactive; Activity [4]: inactive; Activity [5]: inactive; Activity [6]: inactive; Activity [7]: inactive; Activity [8]: inactive; Activity [9]: inactive; Activity [10]: inactive; Activity [11]: inactive; Activity [12]: inactive
Cc1[nH]c(C#N)cc1C(=O)N1CCOC(c2ccnc(N3CCCC3)n2)C1 (racemic) | 0.49 µM | –
N#Cc1cc(C(=O)N2CCCC(c3cc(N4CCCC4)ncn3)C2)c[nH]1 (racemic) | > 25 µM | –
C[C@@H]1CCN(C(=O)c2c[nH]c(C#N)c2)C[C@H]1c1ccnc(N2CCCC2)n1 | 0.437 µM | –
Cc1cc(C2CCCN(C(=O)c3c[nH]c(C#N)c3)C2)nc(N2CCCC2)n1 (racemic) | > 25 µM | –
N#Cc1cc(C(=O)N2CCC[C@H](c3ccnc(N4CC[C@H](F)C4)n3)C2)c[nH]1 | 0.955 µM | –
N#Cc1coc(C(=O)N2CCOC(c3ccnc(N4CCCC4)n3)C2)c1 (racemic) | > 25 µM | –
N#Cc1cc(C(=O)N2CCCC(c3ccnc(N4CCCCC4)n3)C2)c[nH]1 (racemic) | 2 µM | –
N#Cc1cc(C(=O)N2CCCC(F)(c3ccnc(N4CCCC4)n3)C2)c[nH]1 (racemic) | 0.676 µM | –

Now those with a lower EC50 [1], led by results:

EC50 [1] | SMILES | also measured
0.355 µM | Cc1[nH]c(C#N)cc1C(=O)N1CCCC(c2ccnc(N3CCCC3)n2)C1 (racemic) | –
0.275 µM | N#Cc1c[nH]c(C(=O)N2CCOC(c3ccnc(N4CCCC4)n3)C2)c1 (racemic) | Activity [2]: inactive; Activity [3]: inactive; Activity [4]: inactive; Activity [5]: inactive; Activity [6]: inactive; Activity [7]: inactive; Activity [8]: inactive; Activity [9]: inactive; Activity [10]: inactive; Activity [11]: inactive; Activity [12]: inactive
0.275 µM | N#Cc1cc(C(=O)N2CCC[C@@H](c3ccnc(N4CCCC4)n3)C2)c[nH]1 | EC50 [13]: 6.3 µM
0.275 µM | N#Cc1cc(C(=O)N2CCC[C@H](c3ccnc(N4CCCC4)n3)C2)c[nH]1 | EC50 [13]: 0.275 µM
0.251 µM | C[C@@H]1C[C@H](c2ccnc(N3CCCC3)n2)CN(C(=O)c2c[nH]c(C#N)c2)C1 | CLint scaled [14]: 90 mL/min/kg
0.339 µM | C[C@H]1CCCN1c1nccc([C@H]2CCCN(C(=O)c3c[nH]c(C#N)c3)C2)n1 | –
0.263 µM | N#Cc1cc(C(=O)N2C[C@@H](c3ccnc(N4CCCC4)n3)CC(F)(F)C2)c[nH]1 | –
0.033 µM | C[C@@H]1CC[C@H](c2ccnc(N3CCCC3)n2)CN1C(=O)c1c[nH]c(C#N)c1 | –
0.178 µM | N#Cc1cc(C(=O)N2CCC[C@H](c3ccnc(N4CC[C@@H](F)C4)n3)C2)c[nH]1 | –
0.046 µM | CO[C@@H]1C[C@H](c2ccnc(N3CC[C@@H](F)C3)n2)CN(C(=O)c2c[nH]c(C#N)c2)C1 | Activity (Mus musculus [15]): Active; Activity (Mus musculus [16]): 500%; Activity (Mus musculus [17]): 176%; EC50 [18]: 0.063 µM; EC50 [19]: 0.05 µM; EC50 [20]: > 25 µM; Activity (Mus musculus [21]): 150%
0.102 µM | CO[C@@H]1C[C@H](c2ccnc(N3CCCC3)n2)CN(C(=O)c2c[nH]c(C#N)c2)C1 | –
